Assay results reported in US10913773B2, “Bicyclic peptidyl inhibitor of tumor necrosis factor-alpha” (Ohio State Innovation Foundation, priority 2016, dated 2021).
Starred links: 1 amine or outer side, 2 acyl side, 3 side chain; linkers in the order of their positions; H or OH if unused. Positions of bridges follow the written chain, without caps; N, C: chain ends. Non-standard residues stand in square brackets, D forms with d. Residues, ends and D or L forms follow the SMILES beside them. Groups on a side chain read outwards from the residue. *: point of attachment. Lys(5-FITC)NH2 = NC(=O)[C@H](CCCCNC(=S)Nc1ccc2c(c1)C(=O)OC21c2ccc(O)cc2Oc2cc(O)ccc21)N*; FITC = O=C1OC2(c3ccc(O)cc3Oc3cc(O)ccc32)c2ccc(NC(=S)*)cc21; Trimesoyl = O=C(c1cc(C(=O)[*:2])cc(C(=O)[*:3])c1)[*:1]; β3hV = CC(C)[C@H](N)CC(=O)O; Nle = CCCC[C@H](N)C(=O)O; Dap = NC[C@H](N)C(=O)O; AEEA = NCCOCCOCC(=O)O; βAla = NCCC(=O)O; NHiPr = CC(C)N*

Legend:
TNFα = molecular target: T1, TNFα (Homo sapiens, UniProt P01375); experiment: Fluorescence anisotropy (FA) binding of fluorescently labeled bicyclic peptides to TNFα; details: for Kd: Table 5, residue 11 variants with Lys(FITC)
T1 construct: ybbR tag (13 aa) (N); made in house; host or cells: Escherichia coli
Description: FITC-labeled bicyclic peptide (50 or 100 nM) were incubated with varying concentrations of TNFα (0-5 μM) in 30 mM HEPES, pH 7.4, 150 mM NaCl, and 2 mM magnesium acetate for 2 h. The FA values were measured on a Molecular Devices Spectramax M5 spectrofluorimeter, with excitation and emission wavelengths at 485 and 525 nm, respectively. Equilibrium dissociation constants (KD) were determined by plotting the FA values as a function of TNFα concentration and fitting the data to the following equation
[formula] where Y is the measured anisotropy at a given TNFα concentration x; L is the bicyclic peptide concentration; Qb/Qf is the correction fact for dye-protein interaction; Amax is the maximum anisotropy when all the peptides are bound to TNFα, while Amin is the minimum anisotropy. Competition experiments were performed by incubating 100 nM Asn-Asn-Asn-Lys(FITC)-labeled anticachexin C1 (Table 1), 2 μM of TNFα, and varying concentrations of unlabeled competitor peptide (0-20 μM) in the above buffer for 2 h. The FA values were plotted against the competitor peptide concentration to determine the IC50 values.
To identify residues significant for TNFα binding, each residue of anticachexin C1 (other than D-alanine at position-3, L-lysine at position-4, and L-2,3-diaminopropionic acid (Dap) at position-10) was individually replaced with an alanine (or D-alanine). To facilitate binding analysis by fluorescence anisotropy (FA), a tetrapeptide NNNK (SEQ ID NO: 1) was added to the C-terminus of each bicyclic peptide and the lysine side chain was labeled with fluorescein isothiocyanate (FITC) during solid-phase synthesis (Scheme 1). The three asparagine residues were added to improve the aqueous solubility of the bicyclic peptides. The bicyclic peptide was prepared by first synthesizing the full-length linear sequence on Rink amide resin using standard Fmoc/HBTU chemistry. The side chains of the two internal cyclization residues, L-lysine and Dap, were protected with monomethoxytrityl (Mmt) groups, whereas the C-terminal lysine was protected with an allyloxycarbonyl (Alloc) group. After removal of the N-terminal Fmoc group, a trimesic acid was coupled to the N-terminal amine using HBTU as the coupling agent. Next, the Mmt groups were selectively removed from the Lys and Dap side chains by 2% TFA and the peptide was cyclized by treatment with (benzotriazol-1-yloxy)tripyrrolidinophosphonium hexafluorophosphate (PyBOP). The Alloc group on the C-terminal lysine side chain was removed by treatment with Pd(PPh3)4 and the bicyclic peptide was selectively labeled at the C-terminal lysine by treating the resin with FITC. […] On the other hand, phenylglycine (Phg)-1 and glycine-7 play more minor roles in binding.

TNFα-TNFR1 interaction = molecular target: T2, TNFα-TNFR1 interaction (Homo sapiens, UniProt P01375); experiment: ELISA inhibition of TNFα-TNFR1 interaction (immobilized biotinylated TNFα, TNFR1-HRP); assay type: binding
T2 construct: made in house; host or cells: Escherichia coli (TNFα)
Description: Inhibition of TNFα-TNRF1 interaction by ELISA was carried out as previously described (Lian, W.; et al., supra).
Because of its high-throughput capability, FA analysis had been used to generate all of the SAR data described above. […] To confirm the SAR data obtained by FA analysis, some of the compounds in Table 5 (as well as new compounds) were resynthesized without the Lys(FITC) label and employed a more sensitive ELISA-based assay to determine the IC50 values for inhibition of the TNFα-TNFR1 interaction. Briefly, biotinylated TNFα was immobilized onto a NeutrAvidin-coated surface. TNFR1 conjugated with horseradish peroxidase (HRP) (0.5 nM) was added along with different concentrations of a peptide inhibitor. After washing, the amount of bound TNFR1-HRP was quantitated by ELISA. […] In agreement with the FA results, either extension at the C-terminus of β-Ala with another amino acid (C1-67 to C1-70) or side-chain modification of β-Ala (C1-71 to C1-73) decreased TNFα binding.

[1] = Table 5, peptides without Lys(FITC) label

Kd (TNFα) | IC50 (TNFα-TNFR1 interaction; [1]) | Structure (SMILES) | further results
0.42 ± 0.21 µM |  | CCCC[C@@H]1NC(=O)c2cc3cc(c2)C(=O)NC[C@@H](C(=O)N[C@@H](CC(=O)NCCOCCOCC(=O)N[C@@H](CCCCNC(=S)Nc2ccc4c(c2)C(=O)OC42c4ccc(O)cc4Oc4cc(O)ccc42)C(N)=O)C(=O)NC(C)C)NC(=O)[C@H](Cc2c[nH]cn2)NC(=O)[C@@H](CCCCN)NC(=O)CNC(=O)[C@@H](Cc2c[nH]cn2)NC(=O)[C@H](Cc2c[nH]c4ccccc24)NC(=O)[C@H](CCCCNC3=O)NC(=O)[C@@H](CO)NC(=O)[C@H](Cc2ccc(O)cc2)NC1=O [Compound C1-61] ([Nle]Y[dS]KW[dH]G[dK]H[Dap]D([AEEA-Lys(5-FITC)NH2])-NHiPr; linker N-4-10 via Trimesoyl) | 
1.9 ± 0.9 µM |  | CCCC[C@@H]1NC(=O)c2cc3cc(c2)C(=O)NC[C@@H](C(=O)Nc2cn(C)cc2C(=O)NCCOCCOCC(=O)N[C@@H](CCCCNC(=S)Nc2ccc4c(c2)C(=O)OC42c4ccc(O)cc4Oc4cc(O)ccc42)C(N)=O)NC(=O)[C@H](Cc2c[nH]cn2)NC(=O)[C@@H](CCCCN)NC(=O)CNC(=O)[C@@H](Cc2c[nH]cn2)NC(=O)[C@H](Cc2c[nH]c4ccccc24)NC(=O)[C@H](CCCCNC3=O)NC(=O)[C@@H](CO)NC(=O)[C@H](Cc2ccc(O)cc2)NC1=O [Compound C1-65] | 
0.16 ± 0.15 µM |  | CCCC[C@@H]1NC(=O)c2cc3cc(c2)C(=O)NC[C@@H](C(=O)N[C@H]2CCC[C@@H]2C(=O)NCCOCCOCC(=O)N[C@@H](CCCCNC(=S)Nc2ccc4c(c2)C(=O)OC42c4ccc(O)cc4Oc4cc(O)ccc42)C(N)=O)NC(=O)[C@H](Cc2c[nH]cn2)NC(=O)[C@@H](CCCCN)NC(=O)CNC(=O)[C@@H](Cc2c[nH]cn2)NC(=O)[C@H](Cc2c[nH]c4ccccc24)NC(=O)[C@H](CCCCNC3=O)NC(=O)[C@@H](CO)NC(=O)[C@H](Cc2ccc(O)cc2)NC1=O [Compound C1-63] | 
 |  | CCCC[C@@H]1NC(=O)c2cc3cc(c2)C(=O)NC[C@@H](C(=O)N[C@@H](CCCCNC(=S)Nc2ccc4c(c2)C(=O)OC42c4ccc(O)cc4Oc4cc(O)ccc42)C(N)=O)NC(=O)[C@H](Cc2ccccc2)NC(=O)[C@@H](CCCCN)NC(=O)CNC(=O)[C@@H](Cc2c[nH]cn2)NC(=O)[C@H](Cc2c[nH]c4ccccc24)NC(=O)[C@H](CCCCNC3=O)NC(=O)[C@@H](CO)NC(=O)[C@H](Cc2ccc(O)cc2)NC1=O [Compound C1-50] ([Nle]Y[dS]KW[dH]G[dK]F[Dap]K(FITC)-NH2; linker N-4-10 via Trimesoyl) | Reduction of TNFα binding affinity (fold) (TNFα; His-9 replaced with Phe, relative to parent): ~30 fold
 | 2.4 ± 1.3 µM | CCCC[C@@H]1NC(=O)c2cc3cc(c2)C(=O)NC[C@@H](C(=O)N[C@H](CC(N)=O)C(C)C)NC(=O)[C@H](Cc2c[nH]cn2)NC(=O)[C@@H](CCCCN)NC(=O)CNC(=O)[C@@H](Cc2c[nH]cn2)NC(=O)[C@H](Cc2c[nH]c4ccccc24)NC(=O)[C@H](CCCCNC3=O)NC(=O)[C@@H](CO)NC(=O)[C@H](Cc2ccc(O)cc2)NC1=O [Compound C1-71] ([Nle]Y[dS]KW[dH]G[dK]H[Dap][β3hV]-NH2; linker N-4-10 via Trimesoyl) | 
 | 1.3 ± 1.1 µM | CCCC[C@@H]1NC(=O)c2cc3cc(c2)C(=O)NC[C@@H](C(=O)NCCC(=O)N[C@@H](Cc2ccccc2)C(N)=O)NC(=O)[C@H](Cc2c[nH]cn2)NC(=O)[C@@H](CCCCN)NC(=O)CNC(=O)[C@@H](Cc2c[nH]cn2)NC(=O)[C@H](Cc2c[nH]c4ccccc24)NC(=O)[C@H](CCCCNC3=O)NC(=O)[C@@H](CO)NC(=O)[C@H](Cc2ccc(O)cc2)NC1=O [Compound C1-69] ([Nle]Y[dS]KW[dH]G[dK]H[Dap][βAla]F-NH2; linker N-4-10 via Trimesoyl) | 
 |  | CC(=O)C[C@H](CCc1ccccc1)NC(=O)[C@@H](CC(N)=O)NC(=O)C(N)Cc1ccccc1F (stereo partly drawn) [Compound C1-74-4] | IC50 (TNFα-TNFR1 interaction; inhibition of TNFα-TNFR1 interaction, unlabeled peptides): 0.03 µM; Improvement of IC50 over C1-74 (fold) (TNFα-TNFR1 interaction; relative to C1-74): ~2 fold
 | > 10 µM | CCCC[C@@H]1NC(=O)c2cc3cc(c2)C(=O)NC[C@@H](C(=O)NCCC(=O)N[C@H](Cc2ccccc2)C(N)=O)NC(=O)[C@H](Cc2c[nH]cn2)NC(=O)[C@@H](CCCCN)NC(=O)CNC(=O)[C@@H](Cc2c[nH]cn2)NC(=O)[C@H](Cc2c[nH]c4ccccc24)NC(=O)[C@H](CCCCNC3=O)NC(=O)[C@@H](CO)NC(=O)[C@H](Cc2ccc(O)cc2)NC1=O [Compound C1-70] ([Nle]Y[dS]KW[dH]G[dK]H[Dap][βAla][dF]-NH2; linker N-4-10 via Trimesoyl) | 
